# How the values were obtained:
# Test in all cases: Bliss excess, mean over the matrix (fraction); higher = more synergy
# [1] = test system: LK-2 (Squamous Cell Lung Carcinoma)
# Summary of the method: (§1)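 Cell lines in DMEM/F12 or RPMI with 10% FBS were plated in 1536-well plates, held 24 hours at 37°C, 5% CO2, then given two-drug dose matrices for 72 hours (DMSO typically 0.2%). Viability was read by CellTiter-Glo 2.0 luminescence and scaled as inhibition from 0 (vehicle wells) to 1 (blank wells). Combination Emax is the second-highest inhibition in the matrix; Bliss excess is observed combination effect minus expected EA + EB − EA·EB, EA and EB being single-agent effects.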
# [2] = test system: GP5d (Colorectal Carcinoma)
# Summary of the method: as §1
# [3] = test system: FADU (Head and Neck Carcinoma)
# Summary of the method: as §1
# [4] = test system: SK-PN-DW (Other Solid Carcinomas)
# Summary of the method: as §1
# [5] = test system: KE-37 (T-Lymphoblastic Leukemia)
# Summary of the method: as §1
# [6] = test system: PC-3_[JPC-3] (Lung Adenocarcinoma)
# Summary of the method: as §1
# [7] = test system: PANC-03-27 (Pancreatic Carcinoma)
# Summary of the method: as §1
# [8] = test system: WM793B (Melanoma)
# Summary of the method: as §1
# [9] = test system: SF268 (Low Grade Glioma)
# Summary of the method: as §1
# [10] = test system: NCI-H446 (Small Cell Lung Carcinoma)
# Summary of the method: as §1
# [11] = test system: LN-229 (Glioblastoma)
# Summary of the method: as §1
# [12] = test system: SF539 (Glioblastoma)
# Summary of the method: as §1
# [13] = test system: RERF-LC-Sq1 (Squamous Cell Lung Carcinoma)
# Summary of the method: as §1
# [14] = test system: MKN45 (Gastric Carcinoma)
# Summary of the method: as §1
# [15] = test system: IST-MES1 (Mesothelioma)
# Summary of the method: as §1
# [16] = test system: A2058 (Melanoma)
# Summary of the method: as §1
# [17] = test system: SHP-77 (Small Cell Lung Carcinoma)
# Summary of the method: as §1
# [18] = test system: NCI-H2342 (Lung Adenocarcinoma)
# Summary of the method: as §1
# [19] = test system: MFE-280 (Endometrial Carcinoma)
# Summary of the method: as §1
SMILES,Bliss excess [1],Bliss excess [2],Bliss excess [3],Bliss excess [4],Bliss excess [5],Bliss excess [6],Bliss excess [7],Bliss excess [8],Bliss excess [9],Bliss excess [10],Bliss excess [11],Bliss excess [12],Bliss excess [13],Bliss excess [14],Bliss excess [15],Bliss excess [16],Bliss excess [17],Bliss excess [18],Bliss excess [19]
"C[C@@H]1COCCN1c1cc(C2([S@](C)(=N)=O)CC2)nc(-c2ccnc3[nH]ccc23)n1 [AZD6738] + O=C(c1cc(Cc2n[nH]c(=O)c3ccccc23)ccc1F)N1CCN(C(=O)C2CC2)CC1 [Olaparib] (first compound max 10 µM, 7x7, partner max 10 µM)",0.0091,-0.0092,0.0098,0.008,0.0288,0.0112,0.0141,-0.0214,0.0011,0.0602,-0.0713,-0.0047,-0.0101,-0.0683,0.0228,0.0033,0.0804,-0.0089,0.0368
"Cc1cc2ncnn2cc1Nc1ncc2c(n1)n(C1CCOCC1)c(=O)n2C [AZD7648] + C=CCn1c(=O)c2cnc(Nc3ccc(N4CCN(C)CC4)cc3)nc2n1-c1cccc(C(C)(C)O)n1 [AZD1775] (first compound max 10 µM, partner max 1 µM)",-0.0018,-0.0431,-0.0112,-0.145,-0.0108,0.0063,-0.048,-0.0395,0.0296,-0.0228,-0.0067,0.0049,0.0053,-0.0887,-0.002,0.0194,-0.0798,-0.0023,-0.0406
"Cc1cc2ncnn2cc1Nc1ncc2c(n1)n(C1CCOCC1)c(=O)n2C [AZD7648] + CCN(CCO)CCCOc1ccc2c(Nc3cc(CC(=O)Nc4cccc(F)c4)[nH]n3)ncnc2c1 [AZD2811] (first compound max 10 µM, 7x7, partner max 1 µM)",-0.0328,0.0648,0.0177,0.105,-0.0002,-0.0044,-0.0255,-0.0038,0.0023,-0.0157,0.0148,0.0118,-0.0048,-0.0635,0.0188,0.01,-0.0244,-0.0084,0.019
"Cc1cc2ncnn2cc1Nc1ncc2c(n1)n(C1CCOCC1)c(=O)n2C [AZD7648] + CN(C)CCCOc1ccc(-c2ccc3ncc4c(c3c2)n(C2CCOCC2)c(=O)n4C)cn1 [AZD0156] (first compound max 10 µM, 7x7, partner max 1 µM)",-0.0036,-0.0119,-0.0048,0.0349,0.0492,-0.0019,0.0421,-0.029,0.0098,0.0418,-0.0161,0.0407,0.0114,-0.0268,-0.0353,-0.001,-0.0017,-0.0237,0.0058
"Cc1cc2ncnn2cc1Nc1ncc2c(n1)n(C1CCOCC1)c(=O)n2C [AZD7648] + C[C@@H]1COCCN1C2=NC(=NC(=C2)C3(CC3)[S@](=N)(=O)C)C4=C5C=CNC5=NC=C4 [AZD6738] (first compound max 10 µM, 7x7, partner max 10 µM)",0.0147,-0.0401,-0.0093,0.0154,0.0286,0.0627,0.0016,-0.0352,0.0152,0.0335,-0.0085,-0.0166,-0.0231,-0.0406,0.0176,0.024,-0.0139,0.0271,0.0174
"Cc1cc2ncnn2cc1Nc1ncc2c(n1)n(C1CCOCC1)c(=O)n2C [AZD7648] + O=C(c1cc(Cc2n[nH]c(=O)c3ccccc23)ccc1F)N1CCN(C(=O)C2CC2)CC1 [Olaparib] (first compound max 10 µM, 7x7, partner max 10 µM)",-0.0584,0.0009,0.0107,0.0223,0.0309,-0.0148,-0.0149,-0.0136,-0.0274,-0.0388,-0.0816,-0.0236,-0.0095,-0.0106,-0.0592,-0.0319,-0.0585,-0.0548,-0.0011
"CS(=O)(=O)CCNCc1ccc(-c2ccc3ncnc(Nc4ccc(OCc5cccc(F)c5)c(Cl)c4)c3c2)o1 [Lapatinib] + Cn1cnc2c(F)c(Nc3ccc(Br)cc3Cl)c(C(=O)NOCCO)cc21 [Selumetinib] (first compound max 10 µM, 7x7, partner max 10 µM)",-0.0131,–,–,-0.0095,–,-0.0292,0.044,–,–,–,–,0.0066,–,-0.0778,-0.0348,–,-0.02,-0.0418,-0.063
"CCc1c2c(nc3ccc(O)cc13)-c1cc3c(c(=O)n1C2)COC(=O)[C@]3(O)CC [SN-38] + O=C(c1cc(Cc2n[nH]c(=O)c3ccccc23)ccc1F)N1CCN(C(=O)C2CC2)CC1 [Olaparib] (first compound max 0.3 µM, 7x7, partner max 10 µM)",0.128,0.143,0.086,0.0708,0.0357,0.113,0.0498,–,–,0.0477,–,0.0549,0.0502,-0.0495,-0.0582,0.038,0.0235,0.0154,0.0167

# Source: the supplement of paper PMC11061612
